Measured values: paper PMC9120017, “Inhibition mechanism of the chloride channel TMEM16A by the pore blocker 1PBC” (Nature Communications, 2022)
Read-outs that look alike come from different tables or passages of the source.

Target: T1, mouse TMEM16A mutant I636A (Mus musculus, UniProt Q8BHY3, I636A)
T1 construct: expressed in transfected cells; host or cells: HEK293T
T1 sequence (Q8BHY3 1-960 I636A): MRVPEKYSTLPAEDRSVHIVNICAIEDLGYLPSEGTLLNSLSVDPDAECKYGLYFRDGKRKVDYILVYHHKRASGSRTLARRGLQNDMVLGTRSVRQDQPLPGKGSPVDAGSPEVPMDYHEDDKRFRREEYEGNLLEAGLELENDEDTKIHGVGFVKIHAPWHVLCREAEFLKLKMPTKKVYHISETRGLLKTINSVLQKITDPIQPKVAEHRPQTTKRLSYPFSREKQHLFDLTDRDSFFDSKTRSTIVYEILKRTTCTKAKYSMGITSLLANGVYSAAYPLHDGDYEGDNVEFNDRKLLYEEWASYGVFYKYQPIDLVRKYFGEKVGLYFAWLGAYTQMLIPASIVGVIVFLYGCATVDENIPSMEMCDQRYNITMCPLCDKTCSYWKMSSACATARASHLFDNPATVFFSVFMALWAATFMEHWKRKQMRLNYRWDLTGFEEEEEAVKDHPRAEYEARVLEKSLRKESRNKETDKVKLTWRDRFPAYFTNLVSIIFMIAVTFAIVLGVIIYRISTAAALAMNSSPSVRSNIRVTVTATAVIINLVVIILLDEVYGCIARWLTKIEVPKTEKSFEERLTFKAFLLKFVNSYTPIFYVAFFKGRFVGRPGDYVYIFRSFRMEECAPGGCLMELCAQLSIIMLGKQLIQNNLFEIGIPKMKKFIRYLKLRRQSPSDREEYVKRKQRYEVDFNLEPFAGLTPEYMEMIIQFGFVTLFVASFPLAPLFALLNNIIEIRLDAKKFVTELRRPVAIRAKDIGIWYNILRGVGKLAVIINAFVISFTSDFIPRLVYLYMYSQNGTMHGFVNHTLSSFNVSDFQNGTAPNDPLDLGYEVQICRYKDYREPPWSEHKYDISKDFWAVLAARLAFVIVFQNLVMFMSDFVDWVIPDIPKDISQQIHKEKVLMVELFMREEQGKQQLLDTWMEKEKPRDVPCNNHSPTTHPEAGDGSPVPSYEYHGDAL
Assay: Inside-out patch recording of 1PBC block, mutant I636A
Type: cell-based
Details: for remaining activity at 3 µM: 1PBC conc 3; for remaining activity at 3 µM / remaining activity at 10 µM / remaining activity at 30 µM / remaining activity at 100 µM: read-out: relative current in 1PBC (avr); for remaining activity at 10 µM: 1PBC conc 10; for remaining activity at 30 µM: 1PBC conc 30; for remaining activity at 100 µM: 1PBC conc 100
Procedure: HEK293T cells (ATCC CRL-1573) were maintained in Dulbecco’s modified Eagle’s medium (DMEM; Sigma-Aldrich) supplemented with 10 U ml^−1 penicillin, 0.1 mg ml^−1 streptomycin (Sigma-Aldrich), 2 mM L-glutamine (Sigma-Aldrich), and 10% FBS (Sigma-Aldrich) in a humidified atmosphere containing 5% CO2 at 37 °C. HEK293S GnTI^− cells (ATCC CRL-3022) were maintained in HyClone HyCell TransFx-H medium (GE Healthcare) supplemented with 10 U ml^−1 penicillin, 0.1 mg ml^−1 streptomycin, 4 mM L-glutamine, 0.15% poloxamer 188 (Sigma-Aldrich), and 1% FBS in an atmosphere containing 5% CO2 at 185 rpm at 37 °C. The ac splice variant of mouse TMEM16A (UniProt ID: Q8BHY3), mouse TMEM16B (UniProt ID: Q8CFW1), or mouse TMEM16F (UniProt ID: Q6P9J9) bearing a 3C cleavage site, a Venus YFP, a Myc tag, and a Streptavidin-binding peptide (SBP) downstream of the open reading frame in a modified pcDNA3.1 vector (Invitrogen) were used as described previously[21],[31]. Mutations were introduced using a modified QuikChange method[58] and were verified by sequencing.
HEK293T cells were transfected with 3–4 μg DNA per 6 cm Petri dish using the calcium phosphate co-precipitation method and were used within 24–96 h after transfection. Recordings were performed on inside-out patches excised from HEK293T cells expressing the construct of interest. Patch pipettes were pulled from borosilicate glass capillaries (O.D. 1.5 mm, I.D. 0.86 mm, Sutter Instrument) and were fire-polished with a microforge (Narishige) before use. Pipette resistance was typically 3–8 MΩ when filled with the recording solutions detailed below. Seal resistance was typically 4 GΩ or higher. Voltage-clamp recordings were made using Axopatch 200B, Digidata 1550, and Clampex 10.7 (Molecular Devices). Analog signals were filtered with the in-built 4-pole Bessel filter at 10 kHz and were digitized at 20 kHz. Solution exchange was achieved using a gravity-fed system through a theta glass pipette mounted on an ultra-fast piezo-driven stepper (Siskiyou). […] All recordings were performed at 20 °C.
A symmetrical ionic condition was used throughout. Stock solution with Ca^2+-EGTA contained 150 mM NaCl, 5.99 mM Ca(OH)2, 5 mM EGTA, and 10 mM HEPES at pH 7.40. Stock solution with EGTA contained 150 mM NaCl, 5 mM EGTA, and 10 mM HEPES at pH 7.40. Free Ca^2+ concentrations were adjusted by mixing the stock solutions at the required ratios calculated using the WEBMAXC program (http://web.stanford.edu/~cpatton/webmaxcS.htm). Patch pipettes were filled with the stock solution with Ca^2+-EGTA, which has a free Ca^2+ concentration of 1 mM. 1PBC (ChemBridge) stock was reconstituted in anhydrous DMSO (Sigma-Aldrich) at 100 mM and stored at −20 °C. Working solutions with 1PBC were prepared by serial dilution. Unless otherwise stated, experiments were performed at a saturating Ca^2+ concentration as shown in Supplementary Table 1 and the primary data were corrected for current rundown as described previously[21],[25].
Concentration-response relations, obtained from the ratio of the I-V plots before and after the application of the blocker, were fitted to the Hill equation,1 I/Imax=1/1+IC50/[blocker]^h where I/Imax is the normalized current responses, IC50 defines the concentration at which inhibition is at its half-maximum, and h is the Hill coefficient.

SMILES: N#Cc1c(C(F)(F)F)cc(O)n2c1nc1ccccc12 [1PBC]
- IC50 (0 mV, 15 µM Ca2+): 6.73 µM
- remaining activity at 3 µM (0 mV): 68.4%
- remaining activity at 10 µM (0 mV): 39.2%
- remaining activity at 30 µM (0 mV): 19.6%
- remaining activity at 100 µM (0 mV): 9.71%
- IC50 (20 mV, 15 µM Ca2+): 5.47 µM
- remaining activity at 3 µM (20 mV): 63.6%
- remaining activity at 10 µM (20 mV): 34.4%
- remaining activity at 30 µM (20 mV): 17.1%
- remaining activity at 100 µM (20 mV): 9.23%
- IC50 (40 mV, 15 µM Ca2+): 4.65 µM
- remaining activity at 3 µM (40 mV): 60.6%
- remaining activity at 10 µM (40 mV): 30.8%
- remaining activity at 30 µM (40 mV): 15.1%
- remaining activity at 100 µM (40 mV): 5.83%
- IC50 (60 mV, 15 µM Ca2+): 4.03 µM
- remaining activity at 3 µM (60 mV): 56.6%
- remaining activity at 10 µM (60 mV): 27.9%
- remaining activity at 30 µM (60 mV): 14.3%
- remaining activity at 100 µM (60 mV): 6.18%
- log-fold IC50 (change of mutant vs WT) (80 mV): 0.2863
- IC50 (80 mV, 15 µM Ca2+): 3.83 µM
- remaining activity at 3 µM (80 mV): 55.6%
- remaining activity at 10 µM (80 mV): 26.8%
- remaining activity at 30 µM (80 mV): 13.6%
- remaining activity at 100 µM (80 mV): 5.37%
- IC50 (100 mV, 15 µM Ca2+): 3.89 µM
- remaining activity at 3 µM (100 mV): 55.3%
- remaining activity at 10 µM (100 mV): 27%
- remaining activity at 30 µM (100 mV): 15.6%
- remaining activity at 100 µM (100 mV): 5.12%
- IC50 (120 mV, 15 µM Ca2+): 4.05 µM
- remaining activity at 3 µM (120 mV): 56.6%
- remaining activity at 10 µM (120 mV): 27.6%
- remaining activity at 30 µM (120 mV): 16%
- remaining activity at 100 µM (120 mV): 4.9%
- IC50 (140 mV, 15 µM Ca2+): 4.5 µM
- remaining activity at 3 µM (140 mV): 58.9%
- remaining activity at 10 µM (140 mV): 29.8%
- remaining activity at 30 µM (140 mV): 17.2%
- remaining activity at 100 µM (140 mV): 5.22%
- IC50 (-20 mV, 15 µM Ca2+): 8.22 µM
- remaining activity at 3 µM (-20 mV): 73.2%
- remaining activity at 10 µM (-20 mV): 44.1%
- remaining activity at 30 µM (-20 mV): 22.1%
- remaining activity at 100 µM (-20 mV): 10.2%
- IC50 (-40 mV, 15 µM Ca2+): 10.2 µM
- remaining activity at 3 µM (-40 mV): 77.7%
- remaining activity at 10 µM (-40 mV): 49.5%
- remaining activity at 30 µM (-40 mV): 25.2%
- remaining activity at 100 µM (-40 mV): 11%
- IC50 (-60 mV, 15 µM Ca2+): 12.5 µM
- remaining activity at 3 µM (-60 mV): 81.7%
- remaining activity at 10 µM (-60 mV): 54.6%
- remaining activity at 30 µM (-60 mV): 29.3%
- remaining activity at 100 µM (-60 mV): 11.8%
- IC50 (-80 mV, 15 µM Ca2+): 16 µM
- remaining activity at 3 µM (-80 mV): 85.2%
- remaining activity at 10 µM (-80 mV): 60.7%
- remaining activity at 30 µM (-80 mV): 34%
- remaining activity at 100 µM (-80 mV): 16.3%
- IC50 (-100 mV, 15 µM Ca2+): 19.2 µM
- remaining activity at 3 µM (-100 mV): 87.8%
- remaining activity at 10 µM (-100 mV): 65.1%
- remaining activity at 30 µM (-100 mV): 37.6%
- remaining activity at 100 µM (-100 mV): 18.6%
- IC50 (-120 mV, 15 µM Ca2+): 23.6 µM
- remaining activity at 3 µM (-120 mV): 90.9%
- remaining activity at 10 µM (-120 mV): 69.5%
- remaining activity at 30 µM (-120 mV): 41.8%
- remaining activity at 100 µM (-120 mV): 22.1%
- IC50 (-140 mV, 15 µM Ca2+): 27.8 µM
- remaining activity at 3 µM (-140 mV): 92.3%
- remaining activity at 10 µM (-140 mV): 72.1%
- remaining activity at 30 µM (-140 mV): 45.6%
- remaining activity at 100 µM (-140 mV): 25.9%
- IC50 (I636A, V 0 mV): 6.73 µM
- IC50 (I636A, V 20 mV): 5.47 µM
- IC50 (I636A, V 40 mV): 4.65 µM
- IC50 (I636A, V 60 mV): 4.03 µM
- IC50 (I636A, V 80 mV): 3.83 µM
- IC50 (I636A, V 100 mV): 3.89 µM
- IC50 (I636A, V 120 mV): 4.05 µM
- IC50 (I636A, V 140 mV): 4.5 µM
- IC50 (I636A, V -20 mV): 8.22 µM
- IC50 (I636A, V -40 mV): 10.2 µM
- IC50 (I636A, V -60 mV): 12.5 µM
- IC50 (I636A, V -80 mV): 16 µM
- IC50 (I636A, V -100 mV): 19.2 µM
- IC50 (I636A, V -120 mV): 23.6 µM
- IC50 (I636A, V -140 mV): 27.8 µM
